Here are results for 7 compounds from patent publication US7915199B1, “Herbicidal composition” (Syngenta Crop Protection, Inc., priority 1999, dated 2011).

Compound `CCc1cc(C)cc(C)c1-c1c(O)n2n(c1=O)CCOCC2` yielded a melting point of 182 to 185 °C.

The compound `CCc1cc(C)cc(C)c1-c1c(OC(=O)C(C)(C)C)n2n(c1=O)CCOCC2` came in with a melting point of 110 to 113 °C.

Take `CCOC(=O)Oc1c(-c2c(CC)cc(C)cc2CC)c(=O)n2n1CCOCC2`: the melting point lay in the range of 114 to 116 °C.

Consider `Cc1cc(C)c(-c2c(O)n3n(c2=O)CCOCC3)c(C(C)C)c1`, for which the melting point was 214 to 216 °C.

Turning to `Cc1cc(C)c(-c2c(OC(=O)C(C)(C)C)n3n(c2=O)CCOCC3)c(C(C)C)c1`, the melting point lay in the range of 148 to 151 °C.

On to `COc1cc(C)cc(Br)c1-c1c(O)n2n(c1=O)CCOCC2`, for which the melting point was 217 to 219 °C.

For `COc1cc(C)cc(Br)c1-c1c(OC(=O)C(C)(C)C)n2n(c1=O)CCOCC2`, the melting point lay in the range of 173 to 175 °C.

The term melting point denotes the temperature of the solid-liquid transition.
